Ends that are not written are not given here.
Columns and labels:
[1] = tested on: complement activation in normal human serum (NHS); assay: Ovalbumin-antiovalbumin immune complex-initiated complement activation in normal human serum (C5a, iC3b, SC5b-9 ELISA); format: biochemical
Experimental: Immune complex activation of NHS was performed as follows. NHS was stimulated with three different types of immune complexes (IC) to induce complement activation. Heat-aggregated IgG was generated by incubating intravenous immune globulin at 50 mg/ml at 63° C. for 30 min [26]. Ovalbumin-antiovalbumin immune complexes were made by incubating 0.01 ml anti-ovalbumin antibody with an equal volume of ovalbumin, at 0.25 mg/nil, at 37° C. for 30 minutes and then storing at 4° C. overnight. C1 immune complexes were formed by incubating 0.02 ml anti-C1q goat sera with 5 μl of C1, at 200 μg/ml, at 30° C. for 30 minutes and then placing in an ice water bath. For C5a and C5b-9 assays, activation of NHS was performed by pre-incubating 5% NHS with titrating concentrations of PA-dPEG24 in 0.3 ml of GVBS^++ buffer for 30 minutes at room temperature. […]
ELISA was performed as follows. […] Colorimetric detection was performed with TMB, stopped with H2SO4 and read on a BioTek Synergy HT plate reader at 450 nm.
To provide confirmation of the results with heat-aggregated IgG, the antigen-antibody immune complex most often utilized in animal models of complement activation, ovalbumin and antiovalbumin [27, 28], was then tested. The ovalbumin-antiovalbumin immune complexes were used to stimulate complement activation in NHS and the same three effectors, C5a, iC3b and C5b-9, were measured. […]

human neutrophils = assay: MPO-initiated NET formation by human neutrophils (fluorescence microscopy, PicoGreen free DNA); format: cell-based; conditions: for reduction in free DNA (PicoGreen): vs MPO with no inhibitor
Experimental: Neutrophils from the blood of healthy volunteers were purified from heparinized blood by Hypaque-Ficoll step gradient centrifugation, dextran sedimentation, and hypotonic lysis, as previously described.
A Neutrophil Extracellular Trap assay was performed in a microtiter plate as follows. The formation of NETs was induced by incubating 2.0×10^5 neutrophils in a 96 well tissue culture plates with RPMI media alone, or adding 0.05% of H2O2, or 12 nM PMA, or 8 μg/ml MPO, or PA-dPEG24 at various concentrations. For immune complex sera induced NET formation, activated sera was made by adding 5 μl of ovalbumin-anti-ovalbumin immune complex to 5% NHS in 0.3 ml of GVBS^++. This combination was allowed to incubate for 30 minutes at 37° C., and then 0.05 ml was added to the neutrophils in RPMI. Cells were then incubated for 1.5 hours at 37° C. in 5% CO2 incubator.
NET formation was quantitatively assayed as follows. Free DNA was measured by PicoGreen in the supernatant recovered from the NET microtiter plate well assay. Five hundred units of […] (Fisher) were added to each well to allow for digestion of released extracellular DNA for 10 minutes in 37° C. incubator. The preparation was then aliquoted into an adjacent well and mixed 1:1 with prepared PICO green reagent (Fisher). The fluorescence was then quantified on a BioTek microplate reader at Excitation 485 nm/Emission 528 nm.
NET formation was assayed by fluorescence microscopy. Purified human neutrophils were assayed on a glass slide as follows. Cells were combined with RPMI media and the indicated stimuli as mentioned above in a tube and then aliquoted onto a glass slide circled with a hydrophobic slide marker. The slides were incubated for 1.5 hours at 37° C. in a 5% CO2 incubator at 37 degrees for 1.5 hours. Slides were fixed overnight with 4% paraformaldehyde at 4° C.
For all staining, the following conditions were used. Slides were washed in PBS and incubated in blocking solution (2% normal goat serum+2% bovine serum albumin in PBS) for 1 hour at room temperature. Then the slides were incubated with primary antibody at 1:300 in 2% BSA in PBS for 1 hour at room temperature. Slides were washed in PBS 3 times and incubated in fluorescent-labeled secondary antibody at 1:1000 or DAPI (Southern Biotech) at 0.25 pg/ml final in 2% BSA in PBS for 1 hour at room temperature. Slides were then washed 3 times in PBS and were imaged. Cells were visualized using a DP70 Digital Camera (Olympus Center, Valley Forge, PA), mounted on a BX50, Olympus microscope. Staining antibody pairs used were rabbit anti-MPO (Thermo Scientific) and rabbit anti-Histone H3 (Abcam) with the secondary goat anti-rabbit Alexa Fluor 488 (Novus Biologicals). […]

IALILEPICCQERAA-dPEG24 (cysteine pairing not given here) [PA-dPEG24, 15-amino acid PEGylated peptide, 24 PEG moieties at the C-terminus]
measured SC5b-9 ([1]; 2 mM PA-dPEG24): at the lower limit of detection | PA-dPEG24 concentration giving statistically significant inhibition of each complement effector (C5a, iC3b, C5b-9) ([1]; ovalbumin-antiovalbumin in NHS, P<0.03 vs immune complex alone): ≥ 0.25 mM | reduction in free DNA (PicoGreen) (human neutrophils; 1.1 mM PA-dPEG24, P=0.02): 30% | reduction in free DNA (PicoGreen) (human neutrophils; 4.5 mM PA-dPEG24, P=0.001): 3.7 fold | NET formation by fluorescence microscopy (human neutrophils; 5 mM PA-dPEG24, MPO + hydrogen peroxide): blocked | appearance of neutrophils incubated with PA-dPEG24 alone, fluorescence microscopy (human neutrophils; PA-dPEG24 only, no stimulus): appeared normal

Source: patent US12257290B2, “PIC1 inhibition of myeloperoxidase oxidative activity in an animal model” (priority 2018, dated 2025)
